In paper PMC12844237, “A Novel Quinolone JH62 (E-2-(Tridec-4-en-1-yl)-quinolin-4(1H)-one) from Pseudomonas aeruginosa Exhibits Potent Anticancer Activity” (Microorganisms, 2025):
Where two headings read alike, the source gives them in different places. Each block holds one compound with its values, some of them ahead of it.

How the values were obtained:
A549 cells [1] = settings: cited from earlier work
A549 cells [2] = assay: Chromosome staining experiment; assay type: cell-based, human; settings: A549, 5 μM DOX or 25 μM JH62 for 6 h
Procedure: Metaphase chromosome spreads were prepared from A549 cells. Briefly, A549 cells were cultured. After treatment with JH62 or DOX, cells were incubated with Colcemid (Gibco BRL; 0.2 μg/mL final concentration) for 2 h to arrest cells in metaphase. Cells were then subjected to hypotonic treatment in KCl (0.075 M) at 37 °C for 5 min, and fixed by repeated washing with ice-cold freshly prepared 3:1 (vol/vol) methanol:acetic acid. Chromosome spreads were prepared on premarked glass slides using the “drop-cryo” protocol. The chromosome suspension was dropped onto a slide. This was followed by adding three drops of 45% acetic acid and placing a coverslip over the suspension. The slide was then inverted and placed on dry ice for 15 min. The spreads were postfixed in 2.5% glutaraldehyde in cacodylate buffer (pH 7.4, 75 mM) for 15 min and washed with cacodylate buffer (0.1 M). The chromosomes were stained with Vista Green DNA dye (Cell Biolabs, Singapore). After staining, the preparations were washed in water for 5, 10, and 15 min, then dehydrated using a series of ethanol solutions as follows: 5 min in a 70% solution, 10 min in an 85% solution, and 15 min in 100% ethanol. Finally, slides were mounted with a permanent mounting medium, sealed, and analyzed by microscopy.

cancer cell lines = assay: WST-1 cell viability, panel of cancer cell lines; assay type: cell-based; settings: Homo sapiens; across the tested cancer cell lines
Procedure: (§1) Cell viability was assessed using the WST-1 assay, based on a previously reported method with slight modifications. Briefly, cells were seeded at 1 × 10^4 cells per well in 96-well plates and then treated with different doses of JH62 or DOX for 0–72 h. The cells used included non-cancer cells (MEF, AML12, WI-38, and THLE-2) and cancer cells (A549, HEPG2, HEP3B, BxPC3, U87, DU145, MCF7, HeLa, and HCT116). The WST-1 reagent (Roche, Shanghai, China) was added to each well (10% vol/vol final concentration), followed by incubation for 3 h at 37 °C. Absorbance at OD450 was measured using a microplate reader (Synergy H1; BioTek Instruments, Winooski, VT, USA).

[3] = system: HeLa: human cervical cancer cell lines; assay: WST-1 cell viability, HeLa; assay type: cell-based; settings: HeLa (cervical) cancer cell line
From the text: (§2) Different cells were utilized as follows: MEF: murine embryonic fibroblast (RRID: CVCL_L690); AML12: mouse liver cell lines (RRID: CVCL_0140); WI-38: human lung fibroblast cell lines (RRID: CVCL_0579); THLE-2: human liver epithelial cell lines (RRID: CVCL_3803); A549: human lung cancer cell lines (RRID: CVCL_0023); HEPG2: human liver cancer cell lines (RRID: CVCL_0027); HEP3B: human hepatoma cell lines (RRID: CVCL_0326); BxPC3: human pancreatic cancer cell lines (RRID: CVCL_0186); U87: human primary glioblastoma cell lines (RRID: CVCL_0022); DU145: human prostate cancer cell lines (RRID: CVCL_0105); MCF7: human breast cancer cell lines (RRID: CVCL_0031); HeLa: human cervical cancer cell lines (RRID: CVCL_0030); HCT116: human colon cancer cell lines (RRID: CVCL_0291). Cells were maintained in Dulbecco’s modified Eagle’s medium (DMEM, Gibco) supplemented with L-glutamine (Lonza) (2 mM), 10% fetal bovine serum (FBS, Hyclone), 1 × non-essential amino acids, and sodium pyruvate (1 mM). THLE-2 cells were maintained in THLE-2 Cell Complete Medium (Zhong Qiao Xin Zhou, Shanghai, China). Cells were incubated at 37 °C in a humidified incubator with 5% CO2. […]
(§3) Cell viability was assessed using the WST-1 assay, based on a previously reported method with slight modifications. […] Absorbance at OD450 was measured using a microplate reader (Synergy H1; BioTek Instruments, Winooski, VT, USA).

[4] = system: HCT116: human colon cancer cell lines; assay: WST-1 cell viability, HCT116; assay type: cell-based; settings: HCT-116, HCT116 (colon) cancer cell line
From the text: as §2, §3

[5] = system: U87: human primary glioblastoma cell lines; assay: WST-1 cell viability, U87; assay type: cell-based; settings: U87 (glioblastoma) cancer cell line
From the text: as §2, §3

[6] = system: both non-cancer and cancer cells; assay: WST-1 cell viability, non-cancer and cancer cells together; assay type: cell-based; settings: against both non-cancer and cancer cells
Procedure: Cell viability was assessed using the WST-1 assay, based on a previously reported method with slight modifications [54]. […] The cells used included non-cancer cells (MEF, AML12, WI-38, and THLE-2) and cancer cells (A549, HEPG2, HEP3B, BxPC3, U87, DU145, MCF7, HeLa, and HCT116). The WST-1 reagent (Roche, Shanghai, China) was added to each well (10% vol/vol final concentration), followed by incubation for 3 h at 37 °C. Absorbance at OD450 was measured using a microplate reader (Synergy H1; BioTek Instruments, Winooski, VT, USA).

[7] = system: non-cancer cells (MEF, AML12, WI-38, and THLE-2); assay: WST-1 cell viability, panel of non-cancer cells; assay type: cell-based; settings: across non-cancer cells (MEF, AML12, WI-38, and THLE-2)
Procedure: as §1

[8] = system: HEPG2: human liver cancer cell lines; assay: WST-1 cell viability, HEPG2; assay type: cell-based; settings: HEPG2 (liver) cancer cell line
From the text: as §2, §3

A549 cells [9] = assay: DNA fragmentation analysis (genomic DNA electrophoresis); assay type: cell-based, human; settings: A549, 24 h; JH62 5–100 µM, DOX 1 and 5 μM
Procedure: Genomic DNA fragmentation was analyzed by agarose gel electrophoresis using previously described methods. A549 cells were seeded in 6 cm tissue culture dishes and cultured overnight. Before treatment with JH62 or DOX, the cells were cultured in DMEM lacking FBS for 16 h. After treatment, the cells were then washed three times with PBS and genomic DNA was extracted using a MasterPure™ DNA Purification Kit (Lucigen Corporation, Middleton, WI, USA). The DNA pellet was airdried and resuspended in Tris-HCl (pH 8.0, 10 mM). DNA samples (2.5 μg) were separated by 1% agarose gel electrophoresis in TAE buffer containing ethidium bromide.

[10] = system: DU145: human prostate cancer cell lines; assay: WST-1 cell viability, DU145; assay type: cell-based; settings: DU-145, DU145 (prostate) cancer cell line
From the text: as §2, §3

[11] = system: A549: human lung cancer cell lines; assay: WST-1 cell viability, A549; assay type: cell-based; settings: Homo sapiens, A549, A549 (lung) cancer cell line, WST-1
From the text: Different cells were utilized as follows: MEF: murine embryonic fibroblast (RRID: CVCL_L690); AML12: mouse liver cell lines (RRID: CVCL_0140); WI-38: human lung fibroblast cell lines (RRID: CVCL_0579); THLE-2: human liver epithelial cell lines (RRID: CVCL_3803); A549: human lung cancer cell lines (RRID: CVCL_0023); HEPG2: human liver cancer cell lines (RRID: CVCL_0027); HEP3B: human hepatoma cell lines (RRID: CVCL_0326); BxPC3: human pancreatic cancer cell lines (RRID: CVCL_0186); U87: human primary glioblastoma cell lines (RRID: CVCL_0022); DU145: human prostate cancer cell lines (RRID: CVCL_0105); MCF7: human breast cancer cell lines (RRID: CVCL_0031); HeLa: human cervical cancer cell lines (RRID: CVCL_0030); HCT116: human colon cancer cell lines (RRID: CVCL_0291). Cells were maintained in Dulbecco’s modified Eagle’s medium (DMEM, Gibco) supplemented with L-glutamine (Lonza) (2 mM), 10% fetal bovine serum (FBS, Hyclone), 1 × non-essential amino acids, and sodium pyruvate (1 mM). THLE-2 cells were maintained in THLE-2 Cell Complete Medium (Zhong Qiao Xin Zhou, Shanghai, China). Cells were incubated at 37 °C in a humidified incubator with 5% CO2. A549 cells were previously stored in the lab and other cell lines were a gift from Haishan Wang’s lab (Institute of Molecular and Cell Biology, Singapore). All cell lines were confirmed to be contamination-free.
as §1

[12] = system: AML12: mouse liver cell lines; assay: WST-1 cell viability, AML12; assay type: cell-based; settings: AML12, non-cancer cell line
From the text: as §2, §3

[13] = system: MCF7: human breast cancer cell lines; assay: WST-1 cell viability, MCF7; assay type: cell-based; settings: MCF7 (breast) cancer cell line
From the text: as §2, §3

[14] = system: BxPC3: human pancreatic cancer cell lines; assay: WST-1 cell viability, BxPC3; assay type: cell-based; settings: BXPC-3, BxPC3 (pancreatic) cancer cell line
From the text: as §2, §3

[15] = system: HEP3B: human hepatoma cell lines; assay: WST-1 cell viability, HEP3B; assay type: cell-based; settings: HEP3B (liver) cancer cell line
From the text: as §2, §3

[16] = system: MEF: murine embryonic fibroblast; assay: WST-1 cell viability, MEF; assay type: cell-based; settings: Mus musculus, non-cancer cell line
From the text: as §2, §3

[17] = system: WI-38: human lung fibroblast cell lines; assay: WST-1 cell viability, WI-38; assay type: cell-based; settings: WI-38, non-cancer cell line
From the text: as §2, §3

[18] = system: THLE-2: human liver epithelial cell lines; assay: WST-1 cell viability, THLE-2; assay type: cell-based; settings: THLE-2, non-cancer cell line
From the text: as §2, §3

A549 cells [19] = assay: Comet assay; assay type: cell-based, human; settings: A549, 1, 8, and 12 h
Procedure: Residual DNA damage was detected by alkaline single cell gel electrophoresis (Comet Assay) using the Trevigen Comet Assay Kit (Trevigen, Gaithersburg, MD, USA) following the manufacturer’s protocol with slight modifications. […] The treated cells were trypsinized and pelleted by centrifugation. The cell pellets were washed and resuspended in 2 mL of ice-cold PBS. The cell suspension was mixed 1:10 (vol/vol) with low-melting point agar at 42 °C and immediately pipetted onto a CometSlide™. Slides were incubated at 4 °C in the dark for 30 min, immersed in chilled lysis solution and incubated again at 4 °C for 30 min. Slides were placed in a horizontal electrophoresis chamber and electrophoresed with buffer NaOH (0.3 M) and EDTA (1 mM) at 1 V/cm for 15 min. Samples were dried and stained with Vista Green DNA dye (Cell Biolabs, Singapore). Comet tails were imaged using a model DM 2500 fluorescent microscope (Leica, Wetzlar, Germany) and quantified by Komet 5.5 software (Andor Technology, Belfast, UK). A minimum of 50 cells were scored per treatment. All experiments were performed independently in triplicate.

HeLa = system: HeLa; parameters: method as in PMID 8823519; settings: HeLa ref 87; cited from earlier work
[20] = clinically successful drugs; cited from earlier work

Compound: Oc1cccc2cccnc12 [8-hydroxyquinoline]
IC50 (A549 cells [1]; A549 ref 85): 26000 nM

chromosome morphology (A549 cells [2]): fragmented and adhered together | IC50 (cancer cell lines): 700 to 3900 nM | IC50 [3]: 700 ± 700 nM | IC50 [4]: 3900 ± 700 nM | IC50 [5]: 1400 ± 1000 nM | IC50 [8]: 800 ± 100 nM | genomic DNA integrity (electrophoresis) (A549 cells [9]): obvious DNA fragmentation | IC50 [10]: 1900 ± 200 nM | IC50 [11]: 2100 ± 500 nM | IC50 [13]: 1200 ± 500 nM | IC50 [14]: 1900 ± 100 nM | IC50 [15]: 3300 ± 200 nM | comet tail analysis (A549 cells [19]): distinct and typical comet tail
Compound: COc1cccc2c1C(=O)c1c(O)c3c(c(O)c1C2=O)C[C@@](O)(C(=O)CO)C[C@@H]3O[C@H]1C[C@H](N)[C@H](O)[C@H](C)O1 [DOX, Doxorubicin, reference compound]
IC50 [6]: 500 to 5000 nM | IC50 [7]: 1200 to 5100 nM | IC50 [12]: 5100 ± 1300 nM | IC50 [16]: 3900 ± 400 nM | IC50 [17]: 1900 ± 300 nM | IC50 [18]: 1200 ± 100 nM

Compound: CCCCCC/C=C/Cc1c(C)c(=O)c2ccccc2n1O [E-1-hydroxy-2-(non-2-enyl)-3-methyl-4-quinolone]
IC50 (HeLa): 1900 nM

Compound: CCCCCCCc1[nH]c2ccccc2c(=O)c1O [PQS, 2-heptyl-3-hydroxy-4(1H)-quinolone]
IC50 (A549 cells [1]; A549 cells ref 82,83): 19000 nM

Compound: O=C1NC(=O)C(c2ccccc2)(c2ccccc2)N1 [phenytoin]
PPB [20]: exceeding 98%
